In patent US10201527B2, “Benzimidazole derivatives: preparation and pharmaceutical applications” (MEI PHARMA, INC., priority 2003, dated 2019):

How the values were obtained:
HDAC3 = HDAC3 (Homo sapiens (Human), UniProt O15379); experiment: In vitro HDAC assay, HDAC3; type: biochemical; conditions: Free base
Experimental: In Vitro HDAC Assay for Determination of IC50 Values
The assay has been carried out in 96 well format and the BIOMOL fluorescent-based HDAC activity assay has been applied. […] Flur de lys Developer was added and the reaction was incubated for 10 min. Briefly, deacetylation of the substrate sensitizes it to the developer, which then generates a fluorophore (symbol). The fluorophore is excited with 360 nm light and the emitted light (460 nm) is detected on a fluorometric plate reader (Tecan Ultra Microplate detection system, Tecan Group Ltd.).
The analytical software, Prism 3.0 has been used to generate IC50 from a series of data.

[1] = test system: acetylated histone 3 [AcH3(lys9/14)] in Colo205 cells; experiment: Histone H3 acetylation assay, ELISA approach; type: cell-based; conditions: Homo sapiens, COLO 205, read-out: EC50, concentration effective for induction of acetylation of histone 3 ([AcH3(lys9/14)]) signal by 50%, 24 h treatment
Experimental: Histone H3 Acetylation Assay—ELISA Approach
An Enzyme Linked Immunosorbent Assay (ELISA) can be applied to detect and quantify the acetylated histone3 (AcH3) in the protein lysate obtained from cancer cell lines treated with the HDAC inhibitors.
The ELISA assay was developed to detect the level of AcH3 from the Colo205 colon cancer cell line treated with 10 μM HDAC inhibitory compounds. The protein lysates from untreated and treated Colo205 were obtained as previously described. The concentration of protein from lysed cells was determined using the BCA method (Sigma-Aldrich Pte Ltd).
The detection antibody used in this ELISA was donkey anti rabbit conjugated with peroxidase.
Colo205 cells were subsequently treated with HDAC inhibitors at different doses (in duplicates, 9 doses treatment, 4-fold dilutions from 100 μM). After treatment for 24 h, cells were lysed and the protein concentration was determined.
The ELISA plate (immulon 2HB plate, Biolaboratories Pte Ltd) was coated with 4 μg/ml of mouse monoclonal antibody against H3 at 4° C. overnight. […] The absorbance was measured at OD450 nm using Spectromax reader (Molecular Devices Corporation, Sunnyvale, Calif.).
The standard curve was drawn and the concentration of AcH3 [(Lys9/14), μg/ml] in a sample was determined using the Softmax software in Spectromax. The amount of AcH3 in a sample was calculated based on the following formula; […]

Colo205 cells = experiment: Cell-based proliferation assay (cyquant), Colo205; conditions: Homo sapiens, 96 h treatment;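 further: Colo205 human colon cancer cells exposed to compounds over a concentration range for 96 h, growth read by CyQUANT proliferation assay, GI50 taken from fitted dose-response curves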
Experimental: A549 and Colo205 cells were seeded in 96-wells plate at 2000 and 5000 cells per well respectively. […] The plates were incubated at 37° C., 5% CO2, for 24 h. Cells were treated with compounds at various concentration for 96 h. Cell growth was then monitored using cyquant cell proliferation assay (Invitrogen Pte Ltd). Dose response curves were plotted to determine GI50 values for the compounds using XL-fit.

MDA-MB435 cells = experiment: Cell-based proliferation assay (cyquant), MDA-MB435; conditions: Homo sapiens, MDA-MB-435; 96 h treatment
Experimental: Cell-Based Proliferation Assay for Determination of GI50 Values
Human colon cancer cell lines (Colo205 and HCT116), human breast cancer cell lines (MDA-MB435 and MDA-MB231), and human lung cancer cell line (A549) were obtained from ATCC. Colo205 cells were cultivated in RPMI 1640 containing 2 mM L-Glutamine, 5% FBS, 1.0 mM Na Pyruvate. A549 and MDA-MB231 were cultivated in RPMI 1640 containing 2 mM L-glutamine, 5% FBS. MDA-MB435 cells were cultivated in DMEM containing 2 mM L-Glutamine, 5% FBS. HCT116 cells were cultivated in IMEM containing 2 mM L-Glutamine, 5% FBS. A549 and Colo205 cells were seeded in 96-wells plate at 2000 and 5000 cells per well respectively. MDA-MB435, HCT116, MDA-MB231 cells were seeded in 96-wells plate at 6000 cells per well. The plates were incubated at 37° C., 5% CO2, for 24 h. Cells were treated with compounds at various concentration for 96 h. Cell growth was then monitored using cyquant cell proliferation assay (Invitrogen Pte Ltd). Dose response curves were plotted to determine GI50 values for the compounds using XL-fit.

[2] = target: HDAC8 enzyme (recombinant GST-HDAC8) (Homo sapiens (Human), UniProt Q9BY41); experiment: In vitro HDAC assay (BIOMOL fluorescent-based), HDAC8 enzyme; type: biochemical
Sequence of HDAC8 enzyme (recombinant GST-HDAC8) (Q9BY41 whole entry): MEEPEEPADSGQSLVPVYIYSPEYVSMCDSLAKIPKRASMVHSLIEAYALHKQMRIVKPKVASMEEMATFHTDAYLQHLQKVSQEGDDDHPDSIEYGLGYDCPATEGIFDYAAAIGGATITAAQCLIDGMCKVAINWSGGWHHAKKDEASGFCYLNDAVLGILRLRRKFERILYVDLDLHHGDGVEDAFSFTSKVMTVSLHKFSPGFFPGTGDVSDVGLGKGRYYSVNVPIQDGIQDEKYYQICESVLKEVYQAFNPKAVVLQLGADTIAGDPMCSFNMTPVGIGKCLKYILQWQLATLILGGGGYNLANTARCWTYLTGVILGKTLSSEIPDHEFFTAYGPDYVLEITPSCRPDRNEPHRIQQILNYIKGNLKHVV
Experimental: (§1) Expression of GST-HDAC1 or HTGST-HDAC8 was done by infecting SF9 cells (Invitrogen Pte Ltd) with pDEST20-HDAC1 or pFASTBAC-GST-HDAC8 baculovirus at MOI=1 for 48 h. Soluble cell lysate was incubated with pre-equilibrated Glutathione Sepharose 4B beads (Amersham) at 4° C. for 2 h. The beads were washed with PBS buffer for 3 times. The GST-HDAC1 protein or GST-HDAC8 protein was eluted by elution buffer containing 50 mM Tris, pH8.0, 150 mM NaCl, 1% Triton X-100 and 10 mM or 20 mM reduced Glutathione. The purified GST-HDAC1 protein or purified GST-HDAC8 protein was dialyzed with HDAC storage buffer containing 10 mM Tris, pH7.5, 100 mM NaCl and 3 mM MgCl2. 20% Glycerol was added to purified GST-HDAC1 protein or purified GST-HDAC8 before storage at −80° C.

[3] = target: HDAC1 enzyme (recombinant GST-HDAC1) (Homo sapiens (Human), UniProt Q13547); experiment: In vitro HDAC assay (BIOMOL fluorescent-based), HDAC1 enzyme; type: biochemical
Sequence of HDAC1 enzyme (recombinant GST-HDAC1) (Q13547 whole entry): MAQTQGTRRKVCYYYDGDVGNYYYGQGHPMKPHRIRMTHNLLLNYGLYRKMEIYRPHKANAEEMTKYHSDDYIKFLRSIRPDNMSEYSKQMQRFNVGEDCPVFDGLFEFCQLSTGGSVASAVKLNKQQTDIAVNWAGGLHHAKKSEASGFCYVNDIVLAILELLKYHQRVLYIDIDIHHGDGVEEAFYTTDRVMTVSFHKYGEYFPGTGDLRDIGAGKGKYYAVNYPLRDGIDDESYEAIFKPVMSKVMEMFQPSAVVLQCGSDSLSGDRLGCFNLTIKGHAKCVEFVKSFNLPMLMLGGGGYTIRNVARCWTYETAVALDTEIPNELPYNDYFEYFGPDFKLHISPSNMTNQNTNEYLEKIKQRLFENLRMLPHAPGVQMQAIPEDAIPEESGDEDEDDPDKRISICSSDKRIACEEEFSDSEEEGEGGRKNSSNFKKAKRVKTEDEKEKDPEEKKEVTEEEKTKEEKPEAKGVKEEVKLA
Experimental: as §1

Sequence of HDAC3 (O15379 whole entry): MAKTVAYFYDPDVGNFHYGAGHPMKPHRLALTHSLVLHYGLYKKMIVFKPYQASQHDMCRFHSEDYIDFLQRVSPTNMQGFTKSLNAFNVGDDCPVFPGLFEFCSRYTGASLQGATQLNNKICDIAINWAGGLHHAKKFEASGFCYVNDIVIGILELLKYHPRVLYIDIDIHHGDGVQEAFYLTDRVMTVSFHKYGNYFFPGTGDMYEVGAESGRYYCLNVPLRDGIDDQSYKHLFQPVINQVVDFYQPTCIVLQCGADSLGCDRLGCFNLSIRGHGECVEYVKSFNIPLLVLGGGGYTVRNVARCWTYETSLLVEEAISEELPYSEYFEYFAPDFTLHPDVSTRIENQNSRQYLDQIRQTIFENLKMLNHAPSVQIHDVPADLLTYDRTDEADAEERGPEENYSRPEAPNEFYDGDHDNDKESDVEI

SMILES | GI50 (Colo205 cells; COLO 205) [µM] | GI50 (MDA-MB435 cells) [µM] | other results
COc1cc(Cn2c(CCc3ccccc3)nc3cc(/C=C/C(=O)NO)ccc32)cc(OC)c1OC [Compound 2, N-Hydroxy-3-[1-(3,4,5-trimethoxybenzyl)-2-(2-phenyl-ethyl)-1H-benzimidazol-5-yl]-acrylamide] |  |  | IC50 (HDAC3): 0.064 µM; EC50 [1]: 1.7 µM
COc1ccc(-c2nc3cc(/C=C/C(=O)NO)ccc3n2CC(O)CO)cc1 (centres unmarked) [Compound 6, N-Hydroxy-3-[1-(2,3-hydroxy-propyl)-2-(4-methoxy-phenyl)-1H-benzimidazole-5-yl]-acrylamide] | > 100 |  | 
COc1cc(-c2nc3cc(/C=C/C(=O)NO)ccc3n2CC(O)CO)ccc1OCc1ccccc1 (centres unmarked) [Compound 7, N-Hydroxy-3-[2-(4-benzyloxy-3-methoxy-phenyl)-1-(2,3-hydroxy-propyl)-1H-benzimidazole-5-yl]-acrylamide] | > 100 |  | 
O=C(/C=C/c1ccc2c(c1)nc(CCc1ccccc1)n2CC(O)CO)NO (centres unmarked) [Compound 8] | 41.4 | 58.4 | 
O=C(/C=C/c1ccc2c(c1)nc(-c1ccccn1)n2CC(O)CO)NO (centres unmarked) [Compound 9, N-Hydroxy-3-[1-(2,3-hydroxy-propyl)-2-(2-pyridyl)-1H-benzimidazol-5-yl]-acrylamide] | > 100 | > 100 | 
O=C(/C=C/c1ccc2c(c1)nc(-c1ccccn1)n2CCCO)NO [Compound 13, N-Hydroxy-3-[1-(3-hydroxy-propyl)-2-(2-pyridyl)-1H-benzimidazol-5-yl]-acrylamide] | 12.3 | 14.1 | 
COCCCn1c(CCc2ccccc2)nc2cc(/C=C/C(=O)NO)ccc21 [Compound 15] | 1.99 | 4.07 | 
O=C(/C=C/c1ccc2c(c1)nc(CCc1ccccc1)n2Cc1ccccn1)NO [Compound 16, N-Hydroxy-3-(2-phenethyl-1-(pyridin-2-yl)methyl-1H-benzimidazol-5-yl)-acrylamide] | 0.94 | 0.98 | 
CN(C)CC(C)(C)Cn1c(CCc2ccccc2)nc2cc(/C=C/C(=O)NO)ccc21 [Compound 17, N-Hydroxy-3-[1-(3-Dimethylamino-2,2-dimethyl-proppyl)-2-phenethyl-1H-benzimidazol-5-yl]-acrylamide] |  |  | IC50 (HDAC3): 0.029 µM; EC50 [1]: 1.1 µM
O=C(/C=C/c1ccc2c(c1)nc(CCc1ccccc1)n2CCc1ccccn1)NO [Compound 18] | 4.69 | 6.16 | 
O=C(/C=C/c1ccc2c(c1)nc(COCc1ccccc1)n2CCCO)NO [Compound 19] | 4.1 | 3.97 | 
CC(C)Cc1nc2cc(/C=C/C(=O)NO)ccc2n1CCc1ccccn1 [Compound 22] | 13.5 | 13.3 | 
O=C(/C=C/c1ccc2c(c1)nc(C1CCCCC1)n2CCCO)NO [Compound 24, N-Hydroxy-[2-cyclohexyl-1-(3-hydroxy-propyl)-1H-benzimidazol-5-yl]-acrylamide] | 30.7 | 35 | 
CC(C)Cc1nc2cc(/C=C/C(=O)NO)ccc2n1CCc1ccccc1 [Compound 25, N-Hydroxy-3-(2-isobutyl-1-phenethyl-1H-benzimidazol-5-yl]-acrylamide] | 8.1 | 6.82 | 
O=C(/C=C/c1ccc2c(c1)nc(COCc1ccccc1)n2CCc1cccnc1)NO [Compound 28] | 2.53 | 5.15 | 
O=C(/C=C/c1ccc2c(c1)nc(CCc1ccccc1)n2CCCN1CCOCC1)NO [Compound 31, N-Hydroxy-3-[1-(3-morpholin-4-propyl]-2-phenethyl-1H-benzimidazol-5-yl}-acrylamide] | 1.87 | 4.06 | 
O=C(O)CCn1c(CCc2ccccc2)nc2cc(/C=C/C(=O)NO)ccc21 [Compound 32, 3-[5-(2-Hydrocarbamoyl-vinyl)-2-phenethyl-benzimidazol-1-yl]-propionic acid] |  |  | IC50 [2]: 1.89 µM
CCCn1c(CCc2ccccc2)nc2cc(/C=C/C(=O)NO)ccc21 [Compound 36, N-Hydroxy-3-(2-phenethyl-1-propyl-1H-benzimidazol-5-yl}-acrylamide] | 2.29 | 2.17 | 
O=C(NO)c1ccc2c(c1)nc(CCc1ccccc1)n2CCCO [Compound 40, 1-(3-Hydroxy-propyl)-2-phenethyl-1H-benzimidazol-5-carboxylic acid hydroxyamide] | 25.6 | 31 | 
CC(Cc1nc2cc(/C=C/C(=O)NO)ccc2n1CCc1cccnc1)c1ccccc1 (centres unmarked) [Compound 41] | 1.65 | 1.91 | 
O=C(/C=C/c1ccc2c(c1)nc(CCc1ccccc1)n2CCN1CCOCC1)NO [Compound 44] | 2.82 | 3.65 | IC50 [3]: 0.268 µM; IC50 [2]: 0.345 µM
COc1cc(Cn2c(CCc3ccccc3)nc3cc(CCC(=O)NO)ccc32)cc(OC)c1OC [Compound 45] | 2.41 | 1.9 | 

SMILES | GI50 (Colo205 cells; COLO 205) [µM] | GI50 (MDA-MB435 cells) [µM] | other results
Cc1nc2cc(/C=C/C(=O)NO)ccc2n1C [Compound 53] |  |  | IC50 [3]: 1.85 µM
Cn1c(CNC(=O)Cc2ccccc2)nc2cc(/C=C/C(=O)NO)ccc21 [Compound 54] | 4.47 | 5.92 | 
Cn1c(CNC(=O)c2ccncc2)nc2cc(/C=C/C(=O)NO)ccc21 [Compound 55] | > 100 | > 100 | IC50 [3]: 0.137 µM
O=C(/C=C/c1ccc2c(c1)nc(CCc1ccccc1)n2CCCn1ccnc1)NO [Compound 56, N-Hydroxy-3-[1-(3-imidazol-1-yl-propyl)-2-phenethyl-1H-benzimidazol-5-yl]-acrylamide] | > 100 | > 100 | 
O=C(/C=C/c1ccc2nc(CCc3ccccc3)n(Cc3ccccc3)c2c1)NO [Compound 58] |  |  | IC50 [3]: 1.14 µM
Cn1c(CCc2ccccc2)nc2ccc(/C=C/C(=O)NO)cc21 [Compound 59] | 2.72 | 3.69 | IC50 [3]: 0.382 µM
Cn1c(CN(Cc2ccccc2)Cc2ccccc2)nc2cc(/C=C/C(=O)NO)ccc21 [Compound 61] | 2.69 | 3.05 | 
COc1ccc(CNCc2nc3cc(/C=C/C(=O)NO)ccc3n2C)cc1 [Compound 62] | 11.7 | 19.8 | 
CCn1c(CNCc2ccccc2)nc2cc(/C=C/C(=O)NO)ccc21 [Compound 64, N-Hydroxy-3-[2-(benzylamino-methyl)-ethyl-1H-benzimidazol-5-yl]-acrylamide] | 1.7 |  | 
O=C(/C=C/c1ccc2c(c1)nc(CCc1ccccc1)n2CCN1CCCCC1)NO [Compound 67, N-Hydroxy-3-[2-phenethyl-1-(piperidin-1-yl-ethyl)-1H-benzimidazol-5-yl]-acrylamide] |  |  | IC50 (HDAC3): 0.056 µM
CCn1c(CN(Cc2ccccc2)Cc2ccccc2)nc2cc(/C=C/C(=O)NO)ccc21 [Compound 68] | 0.73 |  | 
Cn1c(CNC(=O)Cc2ccc(F)cc2)nc2cc(/C=C/C(=O)NO)ccc21 [Compound 69] | 7.16 |  | 
CCn1c(CCNC(=O)Cc2ccccc2)nc2cc(/C=C/C(=O)NO)ccc21 [Compound 70] | 2.9 |  | 
CCn1c(CCNS(=O)(=O)c2ccccc2)nc2cc(/C=C/C(=O)NO)ccc21 [Compound 71] | 7.09 |  | 
O=C(/C=C/c1ccc2c(c1)nc(CCc1ccccc1)n2CCN1CCCC1)NO [Compound 72, N-Hydroxy-3-[2-phenyethyl-1-(2-pyrrolidin-1-yl-ethyl)-1H-benzimidazol-5-yl]-acrylamide] | 0.18 |  | 
CCn1c(CCNC(=O)COc2ccccc2)nc2cc(/C=C/C(=O)NO)ccc21 [Compound 73] | 6.67 |  | 
CC(C)(C)Cn1c(CCc2ccccc2)nc2cc(/C=C/C(=O)NO)ccc21 [Compound 75] | 2.88 |  | IC50 [3]: 0.29 µM
CN(C)CC(C)(C)Cn1c(CCCc2ccccc2)nc2cc(/C=C/C(=O)NO)ccc21 [Compound 83] | 0.25 |  | 
CN(C)CC(C)(C)Cn1c(CCc2ccc(F)cc2)nc2cc(/C=C/C(=O)NO)ccc21 [Compound 84] | 0.17 |  | 
O=C(/C=C/c1ccc2[nH]c(CCc3ccc(F)cc3)nc2c1)NO [Compound 85] | 1.65 |  | 
O=C(/C=C/c1ccc2[nH]c(CCc3cccnc3)nc2c1)NO [Compound 87] | 47.7 |  | 
CN(C)CC(C)(C)Cn1c(SCc2ccccc2)nc2cc(/C=C/C(=O)NO)ccc21 [Compound 89, N-Hydroxy-3-[2-benzylsulfanyl-1-(3-dimethylamino-2-2,dimethyl-propyl)-1H-benzimidazol-5-yl]-acrylamide] |  |  | GI50 (Colo205 cells; COLO 205, 96 h): 0.12 µM
